{"source": "patent US20050266997A1", "about": "“Flowering stimulant composition using nitrobenzene” (priority 2002, published 2005)", "test_system": "agricultural and horticultural crops", "conditions": "Nitrobenzene in a suitable formulation, used as spray or in granular form"}
{"molecule": "O=[N+]([O-])c1ccccc1", "note": "[Nitrobenzene]", "values": [{"measurement": "increasing flowers", "result": "40 to 45", "unit": "%"}]}
